From patent US20250145633A1, “SUBSTITUTED FURANOPYRIMIDINE COMPOUNDS AS PDE1 INHIBITORS” (Dart NeuroScience, LLC, priority 2017, published 2025)

Target: human PDE1B enzyme (Homo sapiens (Human), UniProt Q01064)
Assay: IMAP TR-FRET PDE1B enzymatic assay
Assay type: biochemical
Details: negative log of half-maximal molar inhibitory concentration; 200 nM FAM-cAMP; values given as bins
In short: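 Full-length GST-tagged human PDE1B (250 pg/well) in IMAP BSA buffer with 10 U/ml calmodulin and 2.5 mM CaCl2; compound pre-incubated 5 min at room temperature, then 200 nM (final) FAM-cAMP for 30 min. IMAP binding reagent/Tb added, 1 h; TR-FRET 520/490 ratio read. IC50 from sigmoidal dose-response fit.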

Q: With `Cc1oc2ncnc(NC3(C)CC3)c2c1C(=O)NC1(c2ccc(F)cc2)CC1` [Example 69, N-[1-(4-Fluorophenyl)cyclopropyl]-6-methyl-4-[(1-methylcyclopropyl)amino]furo[2,3-d]pyrimidine-5-carboxamide] as the compound, how does the “PDE1b (pIC50)” value read?
A: >8

Same assay, conditions: negative log of half-maximal molar inhibitory concentration; 200 nM FAM-cAMP; values given as bins; read-out: PDE1b (pIC50) (converted)

Q: `COCc1nc2c(c(=O)[nH]1)CCN(C(=O)c1c(C)oc3ncnc(NC4(C)CC4)c13)C2` [Example 425, 2-(Methoxymethyl)-7-{6-methyl-4-[(1-methylcyclopropyl)amino]furo[2,3-d]pyrimidine-5-carbonyl}-3H,4H,5H,6H,7H,8H-pyrido[3,4-d]pyrimidin-4-one] was tested. Which IC50 did it give?
A: 100 to 1000 nM

Q: For `Cc1oc2ncnc(NC3(C)CC3)c2c1C(=O)N1CCc2c(ccnc2Cl)C1` [Example 285, 5-(5-Chloro-1,2,3,4-tetrahydro-2,6-naphthyridine-2-carbonyl)-6-methyl-N-(1-methylcyclopropyl)furo[2,3-d]pyrimidin-4-amine], which IC50 is on record?
A: 10 to 100 nM

Q: `Cc1oc2ncnc(NC3(C)CC3)c2c1C(=O)NCCc1nc2cc(F)ccc2[nH]1` [Example 724, N-[2-(5-Fluoro-1H-1,3-benzodiazol-2-yl)ethyl]-6-methyl-4-[(1-methylcyclopropyl)amino]furo[2,3-d]pyrimidine-5-carboxamide] was tested. Which IC50 did it give?
A: 10 to 100 nM

Q: With `Cc1oc2ncnc(NC3(C)CC3)c2c1C(=O)N(C)C` [Example 81, N,N,6-Trimethyl-4-[(1-methylcyclopropyl)amino]furo[2,3-d]pyrimidine-5-carboxamide] as the compound, how does the IC50 read?
A: 100 to 1000 nM

Q: Which IC50 does the source give for `Cc1oc2ncnc(NC3(C)CC3)c2c1C(=O)Nc1cnn(-c2ccncc2)c1` [Example 621, 6-Methyl-4-[(1-methylcyclopropyl)amino]-N-[1-(pyridin-4-yl)-1H-pyrazol-4-yl]furo[2,3-d]pyrimidine-5-carboxamide] here?
A: 10 to 100 nM

Q: Which IC50 does the source give for `Cc1oc2ncnc(NC3(C)CC3)c2c1C(=O)NCc1ncco1` [Example 713, 6-Methyl-4-[(1-methylcyclopropyl)amino]-N-(1,3-oxazol-2-ylmethyl)furo[2,3-d]pyrimidine-5-carboxamide] here?
A: 10 to 100 nM

Q: `Cc1oc2ncnc(NC3(C)CC3)c2c1C(=O)N1CCc2c(Cl)ncnc2C1` [Example 6, 5-{4-chloro-5H,6H,7H,8H-pyrido[3,4-d]pyrimidine-7-carbonyl}-6-methyl-N-(1-methylcyclopropyl)furo[2,3-d]pyrimidin-4-amine] was tested. Which IC50 did it give?
A: 10 to 100 nM

Q: Which IC50 does the source give for `Cc1oc2ncnc(NC3(C)CC3)c2c1C(=O)NC1(c2ccccc2)COC1` [Example 130, 6-Methyl-4-[(1-methylcyclopropyl)amino]-N-(3-phenyloxetan-3-yl)furo[2,3-d]pyrimidine-5-carboxamide] here?
A: 10 to 100 nM

Q: `Cc1oc2ncnc(NC3(C)CC3)c2c1C(=O)Nc1cnn(-c2cccnc2)c1` [Example 620, 6-Methyl-4-[(1-methylcyclopropyl)amino]-N-[1-(pyridin-3-yl)-1H-pyrazol-4-yl]furo[2,3-d]pyrimidine-5-carboxamide] was tested. Which IC50 did it give?
A: 10 to 100 nM

Q: How did the IC50 turn out when `Cc1oc2ncnc(NC3(C)CC3)c2c1C(=O)NC1(CCO)CC1` [Example 297, N-[1-(2-Hydroxyethyl)cyclopropyl]-6-methyl-4-[(1-methylcyclopropyl)amino]furo[2,3-d]pyrimidine-5-carboxamide] was run?
A: 10 to 100 nM

Q: For `Cc1oc2ncnc(NC3(C)CC3)c2c1C(=O)N1CCc2nc(C3CC3)ncc2C1` [Example 2, (2-Cyclopropyl-7,8-dihydropyrido[4,3-d]pyrimidin-6(5H)-yl)(6-methyl-4-((1-methylcyclopropyl)amino)furo[2,3-d]pyrimidin-5-yl)methanone], which IC50 is on record?
A: 10 to 100 nM

Q: How did the IC50 turn out when `Cc1cnc(CNC(=O)c2c(C)oc3ncnc(NC4(C)CC4)c23)o1` [Example 448, 6-Methyl-N-[(5-methyl-1,3-oxazol-2-yl)methyl]-4-[(1-methylcyclopropyl)amino]furo[2,3-d]pyrimidine-5-carboxamide] was run?
A: 10 to 100 nM

Q: Which IC50 does the source give for `Cc1oc2ncnc(NC3(C)CC3)c2c1C(=O)N1CCC2(C1)C(=O)Nc1ccccc12` (centres unmarked) [Example 392, 1′-{6-Methyl-4-[(1-methylcyclopropyl)amino]furo[2,3-d]pyrimidine-5-carbonyl}-1,2-dihydrospiro[indole-3,3′-pyrrolidine]-2-one] here?
A: 10 to 100 nM
